Results as given in patent US20200008421A1, “ADJUVANTS” (SYNGENTA PARTICIPATIONS AG, priority 2016, published 2020).

Experiments:
Assay type in all cases: in vivo
[1] = tested on: Polygonum convolvulus (POLCO), Brachiaria plantaginea (BRAPL), Commelina benghalensis (COMBE), Digitaria sanguinalis (DIGSA); experiment: Glasshouse herbicide efficacy of mesotrione with adjuvants (Example 2); details: mesotrione SC, mean over 30 and 60 g/ha, three replicates, four weed species; 21 days after application; adjuvants 0.2% v/v, Tween 20 0.5% v/v; 200 l/ha
Method: (§1) Mesotrione was added to the spray tank as a standard SC (suspension concentrate) formulation.
The four weed species were Polygonum convolvulus (POLCO; growth stage 13-15), Brachiaria plantaginea (BRAPL; growth stage 13-21), Commelina benghalensis (COMBE; growth stage 12-13) and Digitaria sanguinalis (DIGSA; growth stage 13-14).
Each spray test was replicated three times. […] The results shown in Table 2 below are mean averages over the two rates of mesotrione, the three replicates and the four weed species.

[2] = tested on: Polygonum convolvulus (POLCO), Brachiaria plantaginea (BRAPL), Commelina benghalensis (COMBE), Digitaria sanguinalis (DIGSA); experiment: Glasshouse herbicide efficacy of mesotrione with adjuvants (Example 6); details: mesotrione SC, mean over 30 and 60 g/ha, three replicates, four weed species; 21 days after application; Adjuvant 2 0.2% v/v, Tween 20 0.5% v/v; 200 l/ha
Method: as §1
The spray tests were also carried out using mesotrione in conjunction with Adjuvant 2 or the well-known adjuvant Tween® 20. […] The four weed species were Polygonum convolvulus (POLCO), Brachiaria plantaginea (BRAPL), Commelina benghalensis (COMBE) and Digitaria sanguinalis (DIGSA). Each spray test was replicated three times. […] The results shown in Table 6 below are mean averages over the two rates of mesotrione, the three replicates and the four weed species.

[3] = tested on: Polygonum convolvulus (POLCO), Brachiaria plantaginea (BRAPL), Commelina benghalensis (COMBE), Digitaria sanguinalis (DIGSA); experiment: Glasshouse herbicide efficacy of mesotrione with adjuvants (Example 9); details: mesotrione SC, mean over 30 and 60 g/ha, three replicates, four weed species; 21 days after application; adjuvants 0.2% v/v, Tween 20 0.5% v/v; 200 l/ha
Method: The efficacy of Adjuvant 5 as an adjuvant for the herbicide mesotrione was tested in a glasshouse against four weed species. Mesotrione was added to the spray tank as a standard SC (suspension concentrate) formulation.
The spray tests were also carried out using mesotrione in conjunction with Adjuvant 5, Adjuvant 6 or the well-known adjuvant Tween® 20. […] The four weed species were Polygonum convolvulus (POLCO), Brachiaria plantaginea (BRAPL), Commelina benghalensis (COMBE) and Digitaria sanguinalis (DIGSA).
Each spray test was replicated three times. […] The results shown in Table 9 below are mean averages over the two rates of mesotrione, the three replicates and the four weed species.

[4] = tested on: Abutilon theophrasti (ABUTH), Chenopodium album (CHEAL), Digitaria sanguinalis (DIGSA), Setaria viridis (SETVI); experiment: Glasshouse herbicide efficacy of nicosulfuron with adjuvants (Example 1); details: nicosulfuron WG, mean over 30 and 60 g/ha, three replicates, four weed species; 21 days after application; adjuvants 0.2% v/v, Atplus 411F 0.5% v/v; 200 l/ha
Method: (§2) Nicosulfuron was added to the spray tank as a standard WG (water dispersible granule) formulation.
Each spray test was replicated three times. […] The results shown in Table 1 below are mean averages over the two rates of nicosulfuron, the three replicates and the four weed species.

[5] = tested on: Abutilon theophrasti (ABUTH), Chenopodium album (CHEAL), Digitaria sanguinalis (DIGSA), Setaria viridis (SETVI); experiment: Glasshouse herbicide efficacy of nicosulfuron with adjuvants (Example 5); details: nicosulfuron WG, mean over 30 and 60 g/ha, three replicates, four weed species; 21 days after application; Adjuvant 2 0.2% v/v, Atplus 411F 0.5% v/v; 200 l/ha
Method: as §2
The spray tests were also carried out using nicosulfuron in conjunction with Adjuvant 2 or the commercially available tank-mix adjuvant, Atplus 411F®. […] The weed species were Abutilon theophrasti (ABUTH), Chenopodium album (CHEAL), Digitaria sanguinalis (DIGSA) and Setaria viridis (SETVI).
Each spray test was replicated three times. […] The results shown in Table 5 below are mean averages over the two rates of nicosulfuron, the three replicates and the four weed species.

[6] = tested on: Alopecurus myosuroides (ALOMY), Avena fatua (AVEFA), Lolium perenne (LOLPE), Setaria viridis (SETVI); experiment: Glasshouse herbicide efficacy of pinoxaden with adjuvants (Example 3); details: pinoxaden EC, mean over 7.5 and 15 g/ha, three replicates, four weed species; 21 days after application; adjuvants 0.2% v/v; 200 l/ha
Method: (§3) Pinoxaden was added to the spray tank as a standard EC (emulsifiable concentrate) formulation.
Each spray test was replicated three times. […] The results shown in Table 3 below are mean averages over the two rates of pinoxaden, the three replicates and the four weed species.

[7] = tested on: Alopecurus myosuroides (ALOMY), Avena fatua (AVEFA), Lolium perenne (LOLPE), Setaria viridis (SETVI); experiment: Glasshouse herbicide efficacy of pinoxaden with adjuvants (Example 7); details: pinoxaden EC, mean over 7.5 and 15 g/ha, three replicates, four weed species; 21 days after application; adjuvants 0.2% v/v; 200 l/ha
Method: as §3
The spray tests were also carried out using pinoxaden in conjunction with Adjuvant 2 or the standard adjuvant tris(2-ethylhexyl) phosphate. […] The weed species were Alopecurus myosuroides (ALOMY), Avena fatua (AVEFA); Lolium perenne (LOLPE) and Setaria viridis (SETVI).
Each spray test was replicated three times. […] The results shown in Table 7 below are mean averages over the two rates of pinoxaden, the three replicates and the four weed species.

[8] = tested on: Alopecurus myosuroides (ALOMY), Avena fatua (AVEFA), Lolium perenne (LOLPE), Setaria viridis (SETVI); experiment: Glasshouse herbicide efficacy of pinoxaden with adjuvants (Example 10); details: pinoxaden EC, mean over 7.5 and 15 g/ha, three replicates, four weed species; 21 days after application; adjuvants 0.2% v/v; 200 l/ha
Method: The efficacy of Adjuvant 5 as an adjuvant for the herbicide pinoxaden was tested in a glasshouse against four weed species. Pinoxaden was added to the spray tank as a standard EC (emulsifiable concentrate) formulation.
The spray tests were also carried out using pinoxaden in conjunction with Adjuvant 5, Adjuvant 6 or the standard adjuvant tris(2-ethylhexyl) phosphate. […] The weed species were Alopecurus myosuroides (ALOMY), Avena fatua (AVEFA), Lolium perenne (LOLPE) and Setaria viridis (SETVI). Each spray test was replicated three times. […] The results shown in Table 10 below are mean averages over the two rates of pinoxaden, the three replicates and the four weed species.

CS(=O)(=O)c1ccc(C(=O)C2C(=O)CCCC2=O)c([N+](=O)[O-])c1 [Mesotrione, mesotrione]
Mean across species % phytotoxicity (mean percentage kill, leaf area killed) [1]: 25.6% | Mean across species % phytotoxicity (mean percentage kill, leaf area killed) [2]: 17.8% | Mean across species % phytotoxicity (mean percentage kill, leaf area killed) [3]: 27.5%

COc1cc(OC)nc(NC(=O)NS(=O)(=O)c2ncccc2C(=O)N(C)C)n1 [Nicosulfuron, nicosulfuron]
Mean across species % phytotoxicity (mean percentage kill, leaf area killed) [4]: 34.4% | Mean across species % phytotoxicity (mean percentage kill, leaf area killed) [5]: 64.5%

CCc1cc(C)cc(CC)c1-c1c(OC(=O)C(C)(C)C)n2n(c1=O)CCOCC2 [Pinoxaden, pinoxaden]
Mean across species % phytotoxicity (mean percentage kill, leaf area killed) [6]: 3.6% | Mean across species % phytotoxicity (mean percentage kill, leaf area killed) [7]: 3.4% | Mean across species % phytotoxicity (mean percentage kill, leaf area killed) [8]: 7.5%
